Laboratory results: paper PMC5664438, “The novel isoxazoline ectoparasiticide lotilaner (Credelio™): a non-competitive antagonist specific to invertebrates γ-aminobutyric acid-gated chloride channels (GABACls)” (Parasites & Vectors, 2017)
“Also recorded” adds a separate entry of the source. Like-named read-outs stand apart in the source and are kept apart here.

Experiments:
DmS-GABA receptor [1] = target: T1, DmS-GABA receptor (Drosophila melanogaster, UniProt P25123); assay: Co-application protocol (GABA plus drug, no pre-incubation), TEVC on oocytes expressing DmS-GABA; conditions: GABA 1 μM + 100 nM drug
T1 sequence (P25123 45-606 isoform P25123-1 limits assumed): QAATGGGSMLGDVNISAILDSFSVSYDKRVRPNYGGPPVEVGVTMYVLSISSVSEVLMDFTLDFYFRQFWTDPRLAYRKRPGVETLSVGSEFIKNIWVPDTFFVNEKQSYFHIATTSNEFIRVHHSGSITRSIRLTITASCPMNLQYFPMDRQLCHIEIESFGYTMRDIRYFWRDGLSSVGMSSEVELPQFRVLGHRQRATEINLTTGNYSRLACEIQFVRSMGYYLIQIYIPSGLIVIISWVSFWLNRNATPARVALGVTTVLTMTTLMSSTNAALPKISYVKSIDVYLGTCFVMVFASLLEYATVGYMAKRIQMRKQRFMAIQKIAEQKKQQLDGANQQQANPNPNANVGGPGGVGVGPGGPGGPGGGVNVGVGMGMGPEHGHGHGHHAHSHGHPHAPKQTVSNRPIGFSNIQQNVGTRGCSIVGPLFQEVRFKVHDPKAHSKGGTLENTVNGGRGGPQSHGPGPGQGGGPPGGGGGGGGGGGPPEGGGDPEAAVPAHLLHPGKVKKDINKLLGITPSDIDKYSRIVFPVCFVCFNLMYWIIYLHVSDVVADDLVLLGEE

[2] = Biological activity of the enantiomers in vivo (data not shown)
[3] = target: T2, DmS-GABA (wild type GABACl, RDLac) (Drosophila melanogaster, UniProt P25123); assay: Antagonist cumulative pre-application concentration-inhibition, TEVC on oocytes expressing DmS-GABA; assay type: cell-based; conditions: for nH (Hill coefficient): concentration-inhibition curve
T2 construct: expressed in transfected cells; host or cells: Xenopus laevis oocytes injected with in vitro-transcribed capped cRNA (gene synthesised at Genewiz, pT7-TS vector)
T2 sequence (P25123 45-606 isoform P25123-1 limits assumed): T1 sequence (P25123 45-606 isoform P25123-1 limits assumed)
From the text: (§1) The agonist and the drug were then washed off for 15 s and the oocyte exposed again to the same drug concentration for 15 s before increasing to the next concentration.
In a first step, we investigated the effect of lotilaner on the very well characterized D. melanogaster GABACl.

Ls-GABA1 [4] = target: T3, Ls-GABA1 (Lepeophtheirus salmonis, UniProt A0A2H4NNJ4); assay: Antagonist cumulative pre-application concentration-inhibition, TEVC on oocytes expressing Ls-GABA1; assay type: cell-based; conditions: for nH (Hill coefficient): concentration-inhibition curve
Rm-GABA [5] = target: T4, Rm-GABA (Rhipicephalus microplus, UniProt C8CGT5); assay: Antagonist cumulative pre-application concentration-inhibition, TEVC on oocytes expressing Rm-GABA; assay type: cell-based; conditions: for nH (Hill coefficient): Rm-GABA, concentration-inhibition curve
[6] = system: D. melanogaster S302 form; parameters: method as in PMID 24365472; conditions: cited from earlier work
Cl-GABAA α1β2γ2 [7] = target: T5, Cl-GABAA α1β2γ2 (Canis lupus familiaris, UniProt A0A2H4NNI8+A0A2H4NNJ3+E2RSQ0); assay: GABA concentration-activation, two-electrode voltage clamp on Xenopus oocytes expressing Cl-GABAA α1β2γ2; assay type: cell-based
Procedure: Capped cRNAs were synthesized (T7 mMessage mMachine kit, Ambion, Austin, TX, USA) from the linearized vectors containing the different subunits according to the manufacturer’s protocol. cRNA samples were stored at -80 °C until use. Oocytes were prepared and injected using standard procedures. Briefly, ovaries were harvested from Xenopus females that were deeply anesthetized by cooling down at 4 °C and with exposure to tricaine mesylate (3-aminobenzoic acid ethyl ester, methane sulfonate salt, 150 mg/l). The animal care of Xenopus laevis (accreditation de l’animalerie HiQScreen N° 171) and sacrifice was done according to the guidance set by the veterinary authorities of the canton of Geneva based on art.18 on the animal welfare legislation (LPA, art. 141 Ordonnance sur la protection des animaux, OPAn) with the authorization N° 27479 GE/15/16). Small pieces of ovary were isolated in a sterile Barth solution containing: NaCl (88 mM), KCl (1 mM), NaHCO3 (2.4 mM), HEPES (10 mM, pH 7.5), MgSO4·7H2O (0.82 mM), Ca(NO3)2·4H2O (0.33 mM), CaCl2·6H2O (0.41 mM), at pH 7.4, and supplemented with 20 μg/ml of kanamycin, 100 U/ml penicillin and 100 μg/ml streptomycin. Oocytes were microinjected using a Roboinject automatic injection system (Multi Channel Systems, Reutlingen, Germany) with 15–25 nl of cRNA solution (5–50 ng/μl) and then incubated at 18 °C in sterile filtered Barth solution. […]

DmS-GABA receptor [8] = target: T1, DmS-GABA receptor; assay: GABA concentration-response relationships for DmS-GABA in absence and presence of lotilaner; assay type: cell-based; parameters: expressed in transfected cells; host or cells: Xenopus laevis oocytes injected with in vitro-transcribed capped cRNA (gene synthesised at Genewiz, pT7-TS vector); conditions: normalized to initial 100 μM GABA application
From the text: Statistical comparisons were done using unpaired Student’s t test.

Ls-GABA1 [9] = target: T3, Ls-GABA1; assay: cell-based
Procedure: (§2) Capped cRNAs were synthesized (T7 mMessage mMachine kit, Ambion, Austin, TX, USA) from the linearized vectors containing the different subunits according to the manufacturer’s protocol. cRNA samples were stored at -80 °C until use. Oocytes were prepared and injected using standard procedures. Briefly, ovaries were harvested from Xenopus females that were deeply anesthetized by cooling down at 4 °C and with exposure to tricaine mesylate (3-aminobenzoic acid ethyl ester, methane sulfonate salt, 150 mg/l). The animal care of Xenopus laevis (accreditation de l’animalerie HiQScreen N° 171) and sacrifice was done according to the guidance set by the veterinary authorities of the canton of Geneva based on art.18 on the animal welfare legislation (LPA, art. 141 Ordonnance sur la protection des animaux, OPAn) with the authorization N° 27479 GE/15/16). Small pieces of ovary were isolated in a sterile Barth solution containing: NaCl (88 mM), KCl (1 mM), NaHCO3 (2.4 mM), HEPES (10 mM, pH 7.5), MgSO4·7H2O (0.82 mM), Ca(NO3)2·4H2O (0.33 mM), CaCl2·6H2O (0.41 mM), at pH 7.4, and supplemented with 20 μg/ml of kanamycin, 100 U/ml penicillin and 100 μg/ml streptomycin. Oocytes were microinjected using a Roboinject automatic injection system (Multi Channel Systems, Reutlingen, Germany) with 15–25 nl of cRNA solution (5–50 ng/μl) and then incubated at 18 °C in sterile filtered Barth solution. Recordings were made 1–6 days post-cRNA injection.
(§3) . In experiments in which the channel was challenged several times by GABA, enough time was allowed between applications for the channel to recover from desensitization. […]; 10 μM for DmS-GABA and DmR2-GABA; 50 μM for Rm-GABA; and 500 μM for Ls-GABA1). The agonist and the drug were then washed off for 15 s and the oocyte exposed again to the same drug concentration for 15 s before increasing to the next concentration.
(§4) . (1) and normalized to the fitted maximal current amplitude. […] . Table 1 and Additional file 3: Figure S1f). The Hill coefficients were higher than 1 for the five receptors (Table 1) indicating the presence of more than one agonist binding site per receptor. These values were obtained from peak current amplitudes. […]; Table 1 and Additional file 3: Figure S1f).

Rm-GABA [10] = target: T4, Rm-GABA; assay: cell-based
Procedure: as §2, §3, §4

[11] = target: T2, DmS-GABA (wild type GABACl, RDLac); assay: GABA concentration-activation, two-electrode voltage clamp on Xenopus oocytes expressing DmS-GABA; assay type: cell-based; conditions: GABA concentration-activation curve
Procedure: as §2, with “The animal care of Xenopus laevis (accreditation de l’animalerie HiQScreen N° 171) and sacrifice was done according to the guidance set by the veterinary authorities of the canton of Geneva based on art.18 on the animal welfare legislation (LPA, art. 141 Ordonnance sur la protection des animaux, OPAn) with the authorization N° 27479 GE/15/16).” left out
as §1
(1) and normalized to the fitted maximal current amplitude.

Cl-GABAA α1β2γ2 [12] = target: T5, Cl-GABAA α1β2γ2; assay: Antagonist cumulative pre-application concentration-inhibition, TEVC on oocytes expressing Cl-GABAA α1β2γ2; assay type: cell-based
R. microplus GABACls = system: R. microplus GABACls; parameters: method as in PMID 24365472; conditions: cited from earlier work
M. domestica GABACls = system: M. domestica GABACls; parameters: method as in PMID 19944072; conditions: cited from earlier work

T3 sequence (A0A2H4NNJ4 entry or part of it): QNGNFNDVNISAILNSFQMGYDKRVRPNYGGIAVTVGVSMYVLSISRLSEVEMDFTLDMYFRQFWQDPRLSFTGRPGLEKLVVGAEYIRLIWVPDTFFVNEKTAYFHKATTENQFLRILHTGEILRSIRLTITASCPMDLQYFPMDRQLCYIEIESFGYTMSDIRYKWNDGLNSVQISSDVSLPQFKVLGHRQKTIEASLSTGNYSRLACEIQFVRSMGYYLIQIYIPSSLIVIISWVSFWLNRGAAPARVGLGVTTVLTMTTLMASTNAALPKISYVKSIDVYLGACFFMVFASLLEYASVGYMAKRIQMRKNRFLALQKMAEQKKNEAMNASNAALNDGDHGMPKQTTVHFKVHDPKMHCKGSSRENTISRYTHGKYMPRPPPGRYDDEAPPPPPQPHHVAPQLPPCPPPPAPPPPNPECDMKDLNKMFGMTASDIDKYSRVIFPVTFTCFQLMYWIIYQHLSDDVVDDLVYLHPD
T4 sequence (C8CGT5 entry or part of it): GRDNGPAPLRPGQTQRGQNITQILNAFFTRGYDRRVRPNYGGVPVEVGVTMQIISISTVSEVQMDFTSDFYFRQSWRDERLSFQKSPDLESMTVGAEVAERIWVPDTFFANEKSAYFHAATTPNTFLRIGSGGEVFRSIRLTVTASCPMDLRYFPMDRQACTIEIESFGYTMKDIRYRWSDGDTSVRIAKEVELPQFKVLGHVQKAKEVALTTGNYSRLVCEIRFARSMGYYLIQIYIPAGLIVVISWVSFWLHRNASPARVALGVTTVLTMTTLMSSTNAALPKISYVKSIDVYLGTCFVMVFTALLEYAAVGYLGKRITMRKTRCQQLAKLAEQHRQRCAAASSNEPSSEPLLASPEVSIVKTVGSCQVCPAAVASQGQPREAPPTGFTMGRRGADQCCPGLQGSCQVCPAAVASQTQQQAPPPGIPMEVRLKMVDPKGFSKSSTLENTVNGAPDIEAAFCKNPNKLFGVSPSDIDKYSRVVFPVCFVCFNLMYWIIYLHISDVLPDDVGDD
T5 sequence (E2RSQ0 entry or part of it): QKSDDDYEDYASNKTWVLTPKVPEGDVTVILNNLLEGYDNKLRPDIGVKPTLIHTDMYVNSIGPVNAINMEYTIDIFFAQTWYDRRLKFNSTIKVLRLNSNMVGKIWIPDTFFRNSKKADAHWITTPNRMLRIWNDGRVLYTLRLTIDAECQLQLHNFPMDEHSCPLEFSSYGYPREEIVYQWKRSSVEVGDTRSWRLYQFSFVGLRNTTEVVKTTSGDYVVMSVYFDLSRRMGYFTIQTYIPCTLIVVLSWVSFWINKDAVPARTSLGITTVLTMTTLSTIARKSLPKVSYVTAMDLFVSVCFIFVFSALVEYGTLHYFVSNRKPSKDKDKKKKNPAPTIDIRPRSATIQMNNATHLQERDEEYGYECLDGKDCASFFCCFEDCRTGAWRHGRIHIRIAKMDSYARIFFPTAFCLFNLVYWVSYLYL
T5 sequence (A0A2H4NNJ3 entry or part of it): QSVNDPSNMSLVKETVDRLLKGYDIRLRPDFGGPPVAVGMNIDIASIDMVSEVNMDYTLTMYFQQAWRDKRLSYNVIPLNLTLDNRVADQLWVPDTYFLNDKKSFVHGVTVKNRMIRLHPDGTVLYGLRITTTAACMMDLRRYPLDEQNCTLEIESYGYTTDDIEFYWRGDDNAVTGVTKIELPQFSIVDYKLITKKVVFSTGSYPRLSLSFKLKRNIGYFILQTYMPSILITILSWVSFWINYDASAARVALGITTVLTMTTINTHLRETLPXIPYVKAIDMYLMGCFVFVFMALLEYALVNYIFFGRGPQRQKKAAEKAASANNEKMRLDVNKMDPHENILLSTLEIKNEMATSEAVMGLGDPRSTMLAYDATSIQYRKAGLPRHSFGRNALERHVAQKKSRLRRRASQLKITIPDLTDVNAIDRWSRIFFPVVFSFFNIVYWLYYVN
T5 sequence (A0A2H4NNI8 entry or part of it): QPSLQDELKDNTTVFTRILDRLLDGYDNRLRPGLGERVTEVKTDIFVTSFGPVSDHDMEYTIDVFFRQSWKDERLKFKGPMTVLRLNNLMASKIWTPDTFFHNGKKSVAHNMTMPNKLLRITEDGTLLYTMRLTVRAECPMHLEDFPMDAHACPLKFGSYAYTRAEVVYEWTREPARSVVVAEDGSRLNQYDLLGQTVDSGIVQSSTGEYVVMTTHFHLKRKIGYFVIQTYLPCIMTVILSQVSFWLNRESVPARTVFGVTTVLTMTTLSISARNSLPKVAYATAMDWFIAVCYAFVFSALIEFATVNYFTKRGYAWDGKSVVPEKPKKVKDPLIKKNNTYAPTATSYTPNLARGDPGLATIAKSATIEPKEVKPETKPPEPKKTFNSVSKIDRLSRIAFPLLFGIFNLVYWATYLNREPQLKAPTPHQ

SMILES: Cc1cc(C2=NO[C@](c3cc(Cl)c(Cl)c(Cl)c3)(C(F)(F)F)C2)sc1C(=O)NCC(=O)NCC(F)(F)F [AHC-2229544]
- slight decrease in both peaks and tails currents (DmS-GABA receptor [1]): < 10%
- less biological activity than the S-enantiomer [2]: 100 ×
- nH (Hill coefficient) ([3]; DmS-GABA): -0.30 ± 0.03
- inhibition of the GABA-induced current ([3]; DmS-GABA, up to 0.3 μM): no inhibition
- IC50 ([3]; read-out: IC50): 0.959 ± 0.268 µM

SMILES: ClC1=C(Cl)[C@]2(Cl)[C@@H]3[C@@H]4C[C@@H]([C@H]5O[C@@H]45)[C@@H]3[C@@]1(Cl)C2(Cl)Cl [Dieldrin, dieldrin, reference compound]
- IC50 [3]: 4.17 ± 0.92 µM
- nH (Hill coefficient) ([3]; DmS-GABA): -0.45 ± 0.05

SMILES: N#Cc1nn(-c2c(Cl)cc(C(F)(F)F)cc2Cl)c(N)c1[S+]([O-])C(F)(F)F (stereo not drawn) [Fipronil, fipronil, reference compound]
- IC50 (Ls-GABA1 [4]): 0.165 ± 0.0118 µM
- nH (Hill coefficient) (Ls-GABA1 [4]; Ls-GABA1): -0.78 ± 0.04
- IC50 [3]: 0.0276 ± 0.00171 µM
- nH (Hill coefficient) ([3]; DmS-GABA): -0.85 ± 0.04
- IC50 (Rm-GABA [5]): 0.0256 ± 0.00225 µM
- nH (Hill coefficient) (Rm-GABA [5]): -0.56 ± 0.03
- loss of potency [6]: 18 fold

SMILES: NCCCC(=O)O [GABA, γ-aminobutyric acid]
- EC50 (Cl-GABAA α1β2γ2 [7]; EC50 (μM), natural agonist GABA, ± SEM): 1.8 ± 0.14 µM
- nH (Hill coefficient) (Cl-GABAA α1β2γ2 [7]; GABA concentration-activation curve): 1.31 ± 0.12
- GABA Rmax (DmS-GABA receptor [8]; GABA alone): 97.706 ± 2.45%
- EC50 (Ls-GABA1 [9]): 393 ± 11.1 µM
- nH (Hill coefficient) (Ls-GABA1 [9]; Ls-GABA1, GABA concentration-activation curve): 1.35 ± 0.04
- EC50 (Rm-GABA [10]): 50 ± 0.76 µM
- nH (Hill coefficient) (Rm-GABA [10]; Rm-GABA, GABA concentration-activation curve): 2.27 ± 0.19
- nH (Hill coefficient) [11]: 1.57 ± 0.15

SMILES: Cc1cc(C2=NO[C@@](c3cc(Cl)c(Cl)c(Cl)c3)(C(F)(F)F)C2)sc1C(=O)NCC(=O)NCC(F)(F)F [Lotilaner, lotilaner]
- potentiation of peak current at first co-application (DmS-GABA receptor [1]; on average): > 30%
- potentiation of tail current at first co-application (DmS-GABA receptor [1]; on average): > 10%
- GABA Rmax in presence of 0.1 μM lotilaner (DmS-GABA receptor [8]; lotilaner 0.1 μM): 50.98 ± 0.47%
- GABA Rmax in presence of 1 μM lotilaner (DmS-GABA receptor [8]; lotilaner 1 μM): 13.65 ± 1.12%
- IC50 (Cl-GABAA α1β2γ2 [12]): > 10 µM
- nH (Hill coefficient) (Cl-GABAA α1β2γ2 [12]; Cl-GABAA α1β2γ2, concentration-inhibition curve): -0.09 ± 0.02
- inhibitory effect / activity on dog GABAA receptor (Cl-GABAA α1β2γ2 [12]; Cl-GABAA α1β2γ2, up to the highest dose tested, 10 μM): no activity; also recorded: No obvious inhibitory effect
- IC50 (Ls-GABA1 [4]): 0.0524 ± 0.00454 µM
- fold lower IC50 value compared to fipronil (Ls-GABA1 [4]; Ls-GABA1): 3 fold
- nH (Hill coefficient) (Ls-GABA1 [4]; Ls-GABA1): -0.75 ± 0.04
- GABA current inhibition ([3]; DmS-GABA, GABA 10 μM, lotilaner concentrations > 1 μM): almost complete GABA current inhibition
- nH (Hill coefficient) ([3]; DmS-GABA): -0.64 ± 0.03
- IC50 ([3]; read-out: IC50): 0.0238 ± 0.00187 µM
- IC50 (Rm-GABA [5]): 0.0368 ± 0.00439 µM
- nH (Hill coefficient) (Rm-GABA [5]): -0.47 ± 0.03

SMILES: Cc1cc(C2=NOC(c3cc(Cl)cc(Cl)c3)(C(F)(F)F)C2)ccc1C(=O)NCC(=O)NCC(F)(F)F (stereo not drawn) [fluralaner]
- higher inhibitor potency over fipronil (R. microplus GABACls): 5 fold
- higher inhibitor potency over fipronil (M. domestica GABACls): 5 fold
